Molecules are shown by their SMILES. Numbered stars: 1 amine (or outer) side, 2 acyl side, 3 side chain; on linkers, the order of the positions; unused ones are H or OH. Bridge positions count the residues as written; N and C are the ends. Square brackets hold non-standard residues; d marks the D form. Side chains are listed from the residue outwards. Peptide text beside a SMILES is read from it. * marks the point of attachment. C20 diacid = O=C(O)CCCCCCCCCCCCCCCCCCC(=O)*; C18 diacid = O=C(O)CCCCCCCCCCCCCCCCC(=O)*; γGlu = O=C(O)[C@H](CCC(=O)[*:2])N[*:1]; αMeF = C[C@](N)(Cc1ccccc1)C(=O)O; Aib = CC(C)(N)C(=O)O

For series [1], the target named is T1, human amylin receptor (calcitonin receptor co-expressed with receptor activity modifying protein, RAMP3) (hAMYR3) (Homo sapiens, UniProt O60896+P30988).
T1 construct: expressed in transfected cells
T1 sequence (P30988 25-474): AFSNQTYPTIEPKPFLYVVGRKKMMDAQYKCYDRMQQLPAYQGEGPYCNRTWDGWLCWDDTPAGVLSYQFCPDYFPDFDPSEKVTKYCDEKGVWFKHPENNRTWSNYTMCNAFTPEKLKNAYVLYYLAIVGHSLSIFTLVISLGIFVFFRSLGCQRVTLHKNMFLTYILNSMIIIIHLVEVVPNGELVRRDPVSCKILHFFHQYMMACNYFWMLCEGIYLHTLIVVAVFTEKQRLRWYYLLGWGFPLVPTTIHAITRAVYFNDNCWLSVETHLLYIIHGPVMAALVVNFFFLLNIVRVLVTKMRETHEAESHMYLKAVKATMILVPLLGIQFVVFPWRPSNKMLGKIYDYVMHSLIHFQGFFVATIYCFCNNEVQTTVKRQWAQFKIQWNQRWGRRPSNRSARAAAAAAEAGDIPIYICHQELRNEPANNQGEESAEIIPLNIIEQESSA
T1 sequence (O60896 24-148 partner): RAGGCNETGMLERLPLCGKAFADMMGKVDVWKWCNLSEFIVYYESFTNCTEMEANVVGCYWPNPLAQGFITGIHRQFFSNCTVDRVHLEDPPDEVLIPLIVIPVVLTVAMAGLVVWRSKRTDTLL
Briefly: cAMP production in 1321N1 cells with stable recombinant expression of human amylin receptor (hAMYR3). The settings on record: for Ratio (selectivity hAMYR vs hCTR, ratio of EC50 values at the two receptors): EC50 hCTR / EC50 hAMYR3; for EC50: cAMP, 1321N1 cells, assay buffer with 0.1% BSA, read-out: EC50 (pM) hAMYR3. Format: cell-based. The method, boiled down: (§1)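 Receptor-expressing cells (human receptors in 1321N1, rat receptors in HEK) incubated 30 min at room temperature with peptide in HBSS/HEPES pH 7.4, 0.1% BSA, 0.5 mM IBMX. cAMP read by HTRF; EC50 from 4-parameter fit as % of maximal amylin or calcitonin response.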
On the technique in general: Changes in cAMP serve as a functional read-out for many G protein-coupled receptors.

Series [2] addresses T2, human calcitonin receptor (hCTR) (Homo sapiens, UniProt P30988).
T2 construct: expressed in transfected cells
T2 sequence (P30988 25-474): T1 sequence (P30988 25-474)
Briefly: cAMP production in 1321N1 cells with stable recombinant expression of human calcitonin receptor (hCTR). The note with it: cAMP, 1321N1 cells, assay buffer with 0.1% BSA; read-out: EC50 (pM) hCTR. Format: cell-based. In a few lines:
as §1

A further series is described as follows: in vivo. The settings on record: male, Sprague-Dawley, rat, 20 nmol/kg.
The nature of series [3]: Thioflavin T fibrillation assay. In kind it is physicochemical. The note with it: ThT fibrillation assay; peptide 1 mg/mL in 25 mM sodium acetate buffer pH 4.0; 6 days at 37 °C with shaking; >144 h = no increase. From the text: Peptide aggregation that form fibrils is an indication of physical instability. Fibril formation in solution poses a significant risk for the stability of injectable peptide drug products. Thioflavin T (ThT) fibrillation assay is a useful tool to assess the aggregation kinetics of a peptide or protein under accelerated and stressed conditions that can be used to forecast the long-term viability of a compound in solution. ThT can selectively bind amyloid fibrils and the resultant complex emits strong fluorescence signal at 482 nm when excited at 450 nm (Anal Biochem. 1989 Mar;177(2):244-9). Monitoring of the change in fluorescence signal is an established method to study the fibril forming potential of peptides and proteins. ThT (purchased from Sigma Aldrich) stock solution is prepared by dissolving the ThT powder in Milli-Q water and filtered to obtain a 0.25 mM solution. The concentration of the solution is measured at 412 nm using an extinction coefficient of 36 mM^−1cm^−1. Test peptides were dissolved at 1 mg/mL in 25 mM sodium acetate buffer pH 4.0. 100 μL aliquot of peptide solution and 5 μL aliquot of ThT solution were placed in a clear bottom black fluorescence 96-well plate. 5 replicates of each test samples were placed in zo the same row of the plate. Buffer was placed in control wells for baseline correction. All empty wells were filled with water to prevent evaporation. The plate was sealed with aluminium seal and placed in fluorescence plate reader and incubated for 6 days at 37 ° C. with intermittent orbital shaking at 500 to 750 rpm. The fluorescence intensity was measured every 30 min using excitation at 444 nm and emission at 480 nm. The fibril forming potential of the test peptides was determined by measuring the average time taken to detect an increase in baseline corrected fluorescence intensity.

As to `CC[C@H](C)[C@H](NC(=O)[C@@H]1CCCN1C(=O)CNC(=O)[C@H](Cc1ccccc1)NC(=O)[C@H](CC(N)=O)NC(=O)C(C)(C)NC(=O)[C@H](CO)NC(=O)[C@H](CO)NC(=O)[C@H](Cc1c[nH]cn1)NC(=O)[C@@H](NC(=O)[C@H](CC(C)C)NC(=O)[C@H](Cc1ccccc1)NC(=O)[C@H](CC(N)=O)NC(=O)[C@H](C)NC(=O)[C@H](CC(C)C)NC(=O)[C@H](CCCNC(=N)N)NC(=O)[C@H](CCC(N)=O)NC(=O)[C@@H](NC(=O)[C@H](C)NC(=O)[C@@H]1CSSC[C@H](NC(=O)[C@H](CCCCN)NC(=O)[C@@H](N)CCCCNC(=O)CC[C@H](NC(=O)CCCCCCCCCCCCCCCCC(=O)O)C(=O)O)C(=O)N[C@@H](CC(N)=O)C(=O)N[C@@H]([C@@H](C)O)C(=O)N[C@@H](C)C(=O)N[C@@H]([C@@H](C)O)C(=O)N1)[C@@H](C)O)C(C)C)C(=O)N[C@@H](CC(C)C)C(=O)N1CCC[C@H]1C(=O)N1CCC[C@H]1C(=O)N[C@H](C(=O)N[C@@H](CCCNC(=N)N)C(=O)N[C@H](C(=O)NCC(=O)N[C@@H](CO)C(=O)N[C@@H](CC(N)=O)C(=O)N[C@H](C(=O)N[C@@H](Cc1ccc(O)cc1)C(N)=O)[C@@H](C)O)C(C)C)[C@@H](C)O` [Peptide 69, K(γE-C18diacid)K[CNTATC]ATQRLANFLVHSS(Aib)NFGPILPPTRVGSNTY-amide] (H-K([γGlu-C18 diacid])KCNTATCATQRLANFLVHSS[Aib]NFGPILPPTRVGSNTY-NH2; disulfide 3-8), in series [1], the “Ratio (selectivity hAMYR vs hCTR, ratio of EC50 values at the two receptors)” value is listed as 10. Moreover, the EC50 in series [1] stood at 164 pM; in series [2], 1570 pM. Moreover, the half-life was 6.3 h in the series “in vivo” (iv) and 8.5 h in the series “in vivo” (sc).
The matching figures for `CC[C@H](C)[C@H](NC(=O)[C@@H]1CCCN1C(=O)CNC(=O)[C@H](Cc1ccccc1)NC(=O)[C@H](CC(N)=O)NC(=O)C(C)(C)NC(=O)[C@H](CO)NC(=O)[C@H](CO)NC(=O)[C@H](Cc1c[nH]cn1)NC(=O)[C@@H](NC(=O)[C@H](CC(C)C)NC(=O)[C@H](Cc1ccccc1)NC(=O)[C@H](CC(N)=O)NC(=O)[C@H](C)NC(=O)[C@H](CC(C)C)NC(=O)[C@H](CCCNC(=N)N)NC(=O)[C@H](CCC(N)=O)NC(=O)[C@@H](NC(=O)[C@H](C)NC(=O)[C@@H]1CSSC[C@H](NC(=O)[C@@H](N)CCCCNC(=O)CC[C@H](NC(=O)CCCCCCCCCCCCCCCCC(=O)O)C(=O)O)C(=O)N[C@@H](CC(N)=O)C(=O)N[C@@H]([C@@H](C)O)C(=O)N[C@@H](C)C(=O)N[C@@H]([C@@H](C)O)C(=O)N1)[C@@H](C)O)C(C)C)C(=O)N[C@@H](CC(C)C)C(=O)N1CCC[C@H]1C(=O)N1CCC[C@H]1C(=O)N[C@H](C(=O)N[C@@H](CC(N)=O)C(=O)N[C@H](C(=O)NCC(=O)N[C@@H](CO)C(=O)N[C@@H](CCCNC(=N)N)C(=O)N[C@H](C(=O)N[C@@H](Cc1ccc(O)cc1)C(N)=O)[C@@H](C)O)C(C)C)[C@@H](C)O` [Peptide 64, K(γE-C18diacid)[CNTATC]ATQRLANFLVHSS(Aib)NFGPILPPTNVGSRTY-amide] (H-K([γGlu-C18 diacid])CNTATCATQRLANFLVHSS[Aib]NFGPILPPTNVGSRTY-NH2; disulfide 2-7; N-terminus assumed): 9, 149 pM, 1280 pM, 6 h and 5 h.
In the case of `CC[C@H](C)[C@H](NC(=O)[C@@H]1CCCN1C(=O)CNC(=O)[C@](C)(Cc1ccccc1)NC(=O)[C@H](CC(N)=O)NC(=O)[C@H](CC(N)=O)NC(=O)[C@H](CO)NC(=O)[C@H](CO)NC(=O)[C@H](Cc1c[nH]cn1)NC(=O)[C@@H](NC(=O)[C@H](CC(C)C)NC(=O)[C@H](Cc1ccccc1)NC(=O)[C@H](CC(N)=O)NC(=O)[C@H](C)NC(=O)[C@H](CC(C)C)NC(=O)[C@H](CCCNC(=N)N)NC(=O)[C@H](CCC(N)=O)NC(=O)[C@@H](NC(=O)[C@H](C)NC(=O)[C@@H]1CSSC[C@H](NC(=O)[C@@H](N)CCCCNC(=O)CC[C@H](NC(=O)CC[C@H](NC(=O)CCCCCCCCCCCCCCCCC(=O)O)C(=O)O)C(=O)O)C(=O)N[C@@H](CC(N)=O)C(=O)N[C@@H]([C@@H](C)O)C(=O)N[C@@H](C)C(=O)N[C@@H]([C@@H](C)O)C(=O)N1)[C@@H](C)O)C(C)C)C(=O)N[C@@H](CC(C)C)C(=O)N1CCC[C@H]1C(=O)N1CCC[C@H]1C(=O)N[C@H](C(=O)N[C@@H](CC(N)=O)C(=O)N[C@H](C(=O)NCC(=O)N[C@@H](CO)C(=O)N[C@@H](CC(N)=O)C(=O)N[C@H](C(=O)N[C@@H](Cc1ccc(O)cc1)C(N)=O)[C@@H](C)O)C(C)C)[C@@H](C)O` [Peptide 13, K(γE-γE-C18diacid)[CNTATC]ATQRLANFLVHSSNN(αMePhe)GPILPPTNVGSNTY-amide] (H-K([γGlu-γGlu-C18 diacid])CNTATCATQRLANFLVHSSNN[αMeF]GPILPPTNVGSNTY-NH2; disulfide 2-7; N-terminus assumed), in series [1], the “Ratio (selectivity hAMYR vs hCTR, ratio of EC50 values at the two receptors)” value is reported as 10. The EC50 in series [1] worked out at 196 pM; in series [2] it was 2040 pM. Moreover, the “Time taken to detect increase in fluorescence intensity” value in series [3] is recorded as 25 h.
As for `CC[C@H](C)[C@H](NC(=O)[C@H](C)NC(=O)[C@@H]1CCCN1C(=O)[C@H](Cc1ccccc1)NC(=O)[C@H](CC(N)=O)NC(=O)C(C)(C)NC(=O)[C@H](CO)NC(=O)[C@H](CO)NC(=O)[C@H](Cc1c[nH]cn1)NC(=O)[C@@H](NC(=O)[C@H](CC(C)C)NC(=O)[C@H](Cc1ccccc1)NC(=O)[C@H](CC(N)=O)NC(=O)[C@H](C)NC(=O)[C@H](CC(C)C)NC(=O)[C@H](CCCNC(=N)N)NC(=O)[C@H](CCC(N)=O)NC(=O)[C@@H](NC(=O)[C@H](C)NC(=O)[C@@H]1CSSC[C@H](NC(=O)[C@@H](N)CCCCNC(=O)CC[C@H](NC(=O)CC[C@H](NC(=O)CCCCCCCCCCCCCCCCCCC(=O)O)C(=O)O)C(=O)O)C(=O)N[C@@H](CC(N)=O)C(=O)N[C@@H]([C@@H](C)O)C(=O)N[C@@H](C)C(=O)N[C@@H]([C@@H](C)O)C(=O)N1)[C@@H](C)O)C(C)C)C(=O)N[C@@H](CC(C)C)C(=O)N[C@@H](CO)C(=O)N1CCC[C@H]1C(=O)N[C@H](C(=O)N[C@@H](CC(N)=O)C(=O)N[C@H](C(=O)NCC(=O)N[C@@H](CO)C(=O)N[C@@H](CC(N)=O)C(=O)N[C@H](C(=O)N[C@@H](Cc1ccc(O)cc1)C(N)=O)[C@@H](C)O)C(C)C)[C@@H](C)O` [Peptide 117, K(γE-γE-C20diacid)[CNTATC]ATQRLANFLVHSS(Aib)NFPAILSPTNVGSNTY-amide] (H-K([γGlu-γGlu-C20 diacid])CNTATCATQRLANFLVHSS[Aib]NFPAILSPTNVGSNTY-NH2; disulfide 2-7; N-terminus assumed), the “Ratio (selectivity hAMYR vs hCTR, ratio of EC50 values at the two receptors)” value in series [1] amounted to 4. The EC50 in series [1] came out at 770 pM; in series [2], 3190 pM. In addition, the half-life in “in vivo” (iv) was 9.8 h; in “in vivo” (sc), 12.9 h.

As a reminder, the EC50 is the concentration that produces a half-maximal response. As usually defined, the half-life is how long it takes for the measured level to halve.

(Values after patent publication US20240067693A1, “POLYPEPTIDES AND USES THEREOF” (MEDIMMUNE LIMITED, priority 2020, published 2024).)
